# From patent US20230135136A1, “FGFR TYROSINE KINASE INHIBITORS AND ANTI-PDI AGENTS FOR THE TREATMENT OF UROTHELIAL CARCINOMA” (Janssen Pharmaceutica NV, priority 2020, published 2023)
# Like-named read-outs stand apart in the source and are kept apart here.
# Columns and labels:
# [1] = tested on: CD38+ T cells in the peripheral blood; experiment: Phase 1b: flow cytometry immune cell profiling of blood, T cell activation (CD38+ T cells vs C1D1 baseline); type: in vivo, human; conditions: E8RJ cohort, at C1D15, erdafitinib treatment alone; FIG. 4C
# Source text: Phase 1b is the dose escalation part of the study wherein two dosing cohorts (Standard Cohorts and Alternative Cohorts) of erdafitinib were explored, while cetrelimab intravenous (IV) dose was fixed. In the Standard Cohorts (DL1, DL2 or DL2A), erdafitinib and cetrelimab start concurrently from Cycle 1 Day 1 (C1D1). In the Alternative Cohorts (DL1B or DL2B), administration of erdafitinib starts on C1D1 but cetrelimab is initiated 1 cycle (4 weeks) later, on Cycle 2 Day 1 (C2D1) (also referred to as a 28-day run-in of erdafitinib).
# For phase 1b, blood for immune cell profiling were collected at four time points (C1D1, C1D15, C2D1 and C3D1). […] Blood samples were subjected to flow cytometry analysis on a real time basis. T cell activation is quantified as fold increase in the proportions of 1) CD38+CD3, CD38+CD4, or CD38+CD8 T cells out of lymphocytes or CD3 T cell populations, and 2) CD38+ cells out of CD4+ or CD8+ T cell populations, compared to the baseline proportion levels at C1D1.
# (§1) Longitudinal blood samples were analyzed from DL2A (E8J cohort: Erda 8 mg+cetrelimab 240 mg), DL2B (E8RJ cohort: Erda 8 mg 28 days run-in +cetrelimab 240 mg), and DL2 (EJ cohort: Erda 8 mg with the potential dose adjustments to 9 mg depending on phosphate levels measured on C1D15+cetrelimab 240 mg) of phase 1b, and blood samples from Arm A and Arm B of phase 2.
# [2] = tested on: CD38+ T cells in the peripheral blood; conditions: Arm A, erdafitinib monotherapy, FIG. 7c
# Procedure: In Phase 2, two dosing arms are explored: the erdafitinib monotherapy treatment at the starting oral dose of 8 mg (Arm A), or the combination treatment of erdafitinib and cetrelimab (Arm B).
# For phase 1b, blood for immune cell profiling were collected at four time points (C1D1, C1D15, C2D1 and C3D1). For phase 2, blood was collected at six time points (C1D1, C1D15, C2D1, C2D15, C3D1 and C3D15). Blood samples were subjected to flow cytometry analysis on a real time basis. T cell activation is quantified as fold increase in the proportions of 1) CD38+CD3, CD38+CD4, or CD38+CD8 T cells out of lymphocytes or CD3 T cell populations, and 2) CD38+ cells out of CD4+ or CD8+ T cell populations, compared to the baseline proportion levels at C1D1.
# as §1
structure (smiles),measurement,setting,value
"COc1cc(OC)cc(N(CCNC(C)C)c2ccc3ncc(-c4cnn(C)c4)nc3c2)c1 [erdafitinib, N-(3,5-dimethoxyphenyl)-N′-(1-methylethyl)-N-[3-(1-methyl-1H-pyrazol-4-yl)quinoxalin-6-yl]ethane-1,2-diamine]",proportion of CD38+CD8 T cells,[1],dramatically increased
same,extent of increase of proportion of CD38+CD8 T cells,[2]; compared with Arm B,less than that observed in Arm B
same,proportion of CD38+CD8 T cells,[2],increased with time
